In article PMC9810691, “Structure-guided peptide engineering of a positive allosteric modulator targeting the outer pore of TRPV1 for long-lasting analgesia” (Nature Communications, 2023):
“Also recorded” adds a separate entry of the source. Where a SMILES comes first, the peptide text is derived from it. Bridges are numbered along the chain shown (N, C = ends).

Columns and labels:
TRPV3 = assay: Selectivity: 2-APB-evoked TRPV3 current; type: cell-based, murine; conditions: 30 μM 2-APB; normalized to 1 mM 2-APB; mean ± S.E.M., n = 4
Experimental: (§1) HEK293T cells are cultured using DMEM medium contained 10% FBS in a cell incubator with 5% CO2 at 37 °C. Plasmids of murine TRPV1, TRPV2, TRPV3 and human TRPA1 are labeled with YFP or GFP as indicators for subsequent electrophysiological recordings. cDNA constructs of ion channels were transiently transfected with Lipofectamine 2000 (Invitrogen, Carlsbad, CA). And one or 2 days after transient transfection, electrophysiological recordings were performed.
(§2) Patch-clamp recordings were carried out with a HEKA EPC10 amplifier controlled by PatchMaster software (HEKA). Patch pipettes were prepared from borosilicate glass and fire-polished to resistance of 3–8 MΩ by P-97 puller. Both bath solution and pipette solution contained 130 mM NaCl, 10 mM glucose, 0.2 mM EDTA, and 3 mM HEPES and were adjusted to pH 7.2–7.4 with NaOH for whole-cell recordings. For solution with pH lower than 6.5, HEPES was replaced by MES. Whole-cell recordings were performed at ±80 mV. Current was sampled at 10 kHz and filtered at 2.9 kHz. All recordings were performed at room temperature (25 °C). A gravity-driven system (RSC-200, Bio-Logic) with freely rotated perfusion tubes was used for the perfusion of peptide or ligands. Bath and ligand solution were delivered through separate tubes to minimize the mixing of solutions. Patch pipette holding cells was placed in front of the perfusion tube outlet for perfusion.

TRPV2 = assay: Selectivity: 2-APB-evoked TRPV2 current; type: cell-based, murine; conditions: 500 μM 2-APB; normalized to 4 mM 2-APB; mean ± S.E.M., n = 4
Experimental: as §1, §2

TRPA1 = assay: Selectivity: AITC-evoked TRPA1 current; type: cell-based, human; conditions: 30 μM AITC; normalized to 1 mM AITC; mean ± S.E.M., n = 4
Experimental: as §1, §2

TRPV1 [1] = conditions: cited from earlier work
From the text: Positive allosteric modulator (PAM) is defined as a ligand without direct activation of its target, but potentiates the activity of agonists of targets. PAMs of TRPV1 have shown significant analgesic effect by inducing calcium overloading in previous reports[11],[12]. For instance, MRS1477 is developed as a small molecule PAM of TRPV1[13]. […] For instance, noxious heat, proton, and divalent cations induce conformational changes in the outer pore to activate TRPV1[27]–[29].

[2] = cited from earlier work
From the text: Transient receptor potential vanilloid 1 (TRPV1) ion channel is a polymodal nociceptor broadly expressed in sensory neurons involved in pain sensation, making this channel a target for analgesia. Since TRPV1 deletion in rodents led to significant tolerance to noxious heat hyperalgesia[3],[4], antagonists of TRPV1 became the first choice to develop analgesic agents targeting TRPV1 in the past decades. Pharmacological inhibition TRPV1 indeed effectively alleviates dental, rectal, and thermal pain[5],[6]. However, TRPV1 also plays critical roles in thermoregulation, thus its antagonists suf ... || Positive allosteric modulator (PAM) is defined as a ligand without direct activation of its target, but potentiates the activity of agonists of targets. PAMs of TRPV1 have shown significant analgesic effect by inducing calcium overloading in previous reports[11],[12]. For instance, MRS1477 is developed as a small molecule PAM of TRPV1[13]. […] However, as both De1 and De3 bind to the intracell ... || TRPV1 plays a critical role in the pathogenesis of chronic pain[30]–[33], and has been a long-pursued target for pain management. To circumvent the side effects of the first-generation channel inhibitors occurred in clinical trials, alternative strategies such as the PAMs of TRRV1 have been developed.

TRPV1 [3] = biological target: T1, TRPV1 (Mus musculus, UniProt Q704Y3); assay: Whole-cell patch clamp: potentiation of proton-evoked TRPV1 current; type: cell-based, murine; conditions: pH 6.5; Hill fit; n = 4 cells; read-out: EC50, enhancement of proton-induced current
T1 sequence (Q704Y3 whole entry): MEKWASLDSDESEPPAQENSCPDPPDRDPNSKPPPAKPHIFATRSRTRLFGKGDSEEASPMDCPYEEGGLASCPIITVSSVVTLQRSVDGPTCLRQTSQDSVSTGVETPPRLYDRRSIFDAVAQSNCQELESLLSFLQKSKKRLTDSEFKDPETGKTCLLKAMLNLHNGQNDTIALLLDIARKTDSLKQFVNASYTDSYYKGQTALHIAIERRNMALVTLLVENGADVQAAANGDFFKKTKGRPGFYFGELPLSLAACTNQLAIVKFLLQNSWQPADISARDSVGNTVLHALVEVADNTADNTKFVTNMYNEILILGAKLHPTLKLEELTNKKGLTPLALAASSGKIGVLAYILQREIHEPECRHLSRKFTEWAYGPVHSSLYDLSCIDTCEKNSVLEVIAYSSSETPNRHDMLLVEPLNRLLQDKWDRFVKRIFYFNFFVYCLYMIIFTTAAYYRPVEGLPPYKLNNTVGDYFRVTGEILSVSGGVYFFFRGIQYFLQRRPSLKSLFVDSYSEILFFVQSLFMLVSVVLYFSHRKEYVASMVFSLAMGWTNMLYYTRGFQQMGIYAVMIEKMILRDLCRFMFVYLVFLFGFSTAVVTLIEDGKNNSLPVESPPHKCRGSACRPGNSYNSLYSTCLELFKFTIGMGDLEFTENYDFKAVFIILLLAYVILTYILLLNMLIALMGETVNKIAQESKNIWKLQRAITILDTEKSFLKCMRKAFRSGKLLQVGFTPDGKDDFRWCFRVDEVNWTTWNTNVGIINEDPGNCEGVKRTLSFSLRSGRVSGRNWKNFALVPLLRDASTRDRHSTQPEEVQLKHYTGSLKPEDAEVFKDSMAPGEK
Experimental: as §1
as §2, with “Patch pipette holding cells was placed in front of the perfusion tube outlet for perfusion.” left out
(§3) Data from whole-cell recordings were analyzed in Igor Pro version 5.05 (WaveMatrix). […]

TRPV1 [4] = biological target: T1, TRPV1; assay: Whole-cell patch clamp: potentiation of capsaicin-evoked TRPV1 current; type: cell-based, murine
Experimental: as §1
as §2, with “Patch pipette holding cells was placed in front of the perfusion tube outlet for perfusion.” left out
as §3

TRPV1 [5] = biological target: T1, TRPV1; assay: Calcium imaging, HEK293T cells expressing TRPV1; type: cell-based, murine; conditions: 30 μM s-RhTx with 10 nM capsaicin; n = 12
Experimental: as §1
(§4) Calcium imaging assay was performed as previously described[12],[20]. In brief, HEK293T cells expressing TRPV1 were incubated with 2 μM Fluo-4 AM (Thermo Fisher) in 2 mM calcium Ringer’s solution (140 mM NaCl, 5 mM KCl, 2 mM MgCl2, 2 mM CaCl2, 10 mM glucose, and 10 mM HEPES, pH 7.4). Fluorescence images of HEK293T cells were acquired with Nikon Eclipse Ti2 microscope with optiMOS charge-coupled device camera controlled by the Ocular Software (Molecular Devices). Fluo-4 AM was excited at 500/20-nm excitation, and fluorescence emission was detected at 535/30-nm. Fluorescence images were analyzed with Fiji software and Office Excel.

[6] = local delivery; words
Experimental: 20 μl of CFA was injected first to induce a chronic pain model. […] All data were shown as mean ± S.E.M. Source data are available as a Source Data file.
Complete Freund’s adjuvant (CFA) was injected at a volume of 20 μl to induce chronic inflammatory pain.

TRPV1 E652D [7] = biological target: T2, TRPV1 E652D (Mus musculus, UniProt Q704Y3, E652D); assay: Calcium imaging, TRPV1 mutant E652D; type: cell-based, murine; conditions: 30 μM s-RhTx with 10 nM capsaicin; n = 45
T2 sequence (Q704Y3 whole entry E652D): as the sequence (Q704Y3 whole entry) above, with E652D counted along it
Experimental: (§5) Site mutations of mTRPV1 were generated by Fast Mutagenesis Kit (Takara Bio). Primers used to generate point mutations are summarized in Supplementary Table 1. All mutations were confirmed by sequencing.
as §4

TRPV1 E652D [8] = biological target: T2, TRPV1 E652D; assay: Mutant cycle analysis: concentration response, Kd and L on TRPV1 E652D; type: cell-based, murine; conditions: mean ± S.E.M.
Experimental: In this analysis, the ligand binding (represented by Kd) and subsequent conformational changes leading to channel opening (represented by L) were separately quantified. Kd and L were calculated by the formulae: EC50 = Kd/(1 + L) and Po max = L/(1 + L), when Po max and EC50 are experimentally measured[20],[21]. Previously we have successfully performed this analysis to establish the interactions between peptide toxin BmP01 and TRPV1[16].
as §5
Patch-clamp recordings were carried out with a HEKA EPC10 amplifier controlled by PatchMaster software (HEKA). Patch pipettes were prepared from borosilicate glass and fire-polished to resistance of 3–8 MΩ by P-97 puller. Both bath solution and pipette solution contained 130 mM NaCl, 10 mM glucose, 0.2 mM EDTA, and 3 mM HEPES and were adjusted to pH 7.2–7.4 with NaOH for whole-cell recordings. […]
as §3
The strength of coupling was determined by the coupling energy (kT multiplied by LnΩ, where k is the Boltzmann constant and T is temperature in Kelvin). LnΩ was calculated by the following equation: LnΩ=LnKd_1⋅Kd_4/Kd_2⋅Kd_3

mouse hind paw = type: in vivo, mice; conditions: 2 μg folded s-RhTx with capsaicin 200 ng; n = 9; words
From the text: (§6) Figure R3. […] (A) Statistical […]
(§7) results of hind paw thickness in mice.
(§8) N.S., not significant, two-way ANOVA. n = 9 mice in each group. (B) H&E staining showing the results of cell […]
(§9) N.S., not significant, n = 3 mice in each group. Scale bar, 50 μm. All data were shown as mean ± s.e.m. […]
(§10) different experiment should be performed.
(§11) Response: We thank the reviewer for the insightful comments. We also agree with the reviewer that the local injections of s-RhTx in this study are not likely to change body temperature. To test […]
(§12) 1) in mice and measured body temperature. […]
(§13) n = 6 mice in each group. No significance in two-way ANOVA. All data were shown as mean ± s.e.m. […]

[9] = type: in vivo, mice; conditions: i.p. 10 mg kg-1 peptide with capsaicin 1 mg kg-1; n = 6; words
From the text: as §6, §7, §8, §9, §10, §11, §12, §13

mouse hind paw skin = type: in vivo, mice; conditions: 1 week; folded s-RhTx with capsaicin; n = 3; words
From the text: as §6, §7, §8, §9, §10, §11, §12, §13

[10] = test system: Trpv1+ nerve fibers, Trpv1-Ai32 / Trpv1-Ai14 mice; assay: Trpv1+ intra-epidermal nerve fiber (IENF) quantification; type: in vivo; conditions: folded s-RhTx without capsaicin; words
Experimental: (§14) Adult C57 BL/6 mice (male, 8–10 weeks) and Trpv1^-/- mice (Jax Strain #:003770) were used for behavioral studies. To specifically label Trpv1-positive nerve fibers in skin tissues, Trpv1-Cre mice[36] (Jax Strain #:017769) were crossed with floxed reporter lines (Ai32, Jax Strain #:012569 or Ai14, Jax Strain #:007914) to get the transgenic reporter (Trpv1-Ai32 or Trpv1-Ai14) mice. Mice were group-housed at 22–24 °C and relative humidity of 30–70% under the 12 h light-dark cycle with access to standard food and water ad libitum. All the animal procedures were approved by the Institutional Animal Care & Use Committee (IACUC) of Zhejiang University.
(§15) After appropriate survival times, the mice were deeply anesthetized with isoflurane and perfused through the ascending aorta with PBS, followed by 4% PFA. After the perfusion, the hind paw glabrous skins and L4-L6 DRGs were removed and postfixed in the same fixative overnight. Skin sections (30 μm) and DRG sections (10 μm) were cut in a cryostat. Sections were blocked with 2% BSA for 2 h at room temperature and then incubated with Deep-red 640/660-conjugated Nissl (1:1000) at room temperature for 2 h. Sections were then incubated with DAPI (1:10,000, Vector Laboratories, catalog H-1200) for 5 min, followed by three times washing with PBS for 5 min each. The stained and mounted sections were examined with a Nikon fluorescence microscope, and images were captured with a charge-coupled device Spot camera. For quantification analysis, at least three sections from each mouse were selected, and at least three mice were analyzed in each group. To evaluate Trpv1-positive nerve fiber degeneration, transgenic reporter (Trpv1-Ai32 or Trpv1-Ai14) mice were used for the quantification of intra-epidermal nerve fiber (IENF) density. IENF density was calculated by counting the number of IENF crossing the epidermis-dermis boundary within unit length.

[11] = test system: DRG neurons, Trpv1-Ai14 mice; assay: Trpv1+ and Nissl+ neurons in DRGs; type: in vivo; conditions: for Trpv1+ neurons (% of all neurons): sheet S5e
Experimental: as §14, §15

NCCOB(c1ccccc1)c1ccccc1 [2-APB]
normalized TRPV3 current, 2-APB alone (TRPV3): 7.08 ± 3.57%
normalized TRPV2 current, 2-APB alone (TRPV2): 7.06 ± 2.25%

C=CCN=C=S [AITC]
normalized TRPA1 current, AITC alone (TRPA1): 41.06 ± 12.85%

CCOC(=O)C1=C(c2ccccc2)NC(C)=C(C(=O)SCCOC)C1CC (centres unmarked) [MRS1477]
TRPV1 activation by capsaicin (TRPV1 [1]): enhances TRPV1 activation by capsaicin
duration of analgesic effects [2]: about two weeks

C=C(C)[C@]12C[C@@H](C)[C@@]34O[C@](Cc5ccccc5)(O[C@@H]1[C@@H]3C=C(COC(=O)Cc1ccc(O)c(OC)c1)C[C@]1(O)C(=O)C(C)=C[C@@H]41)O2 [resiniferatoxin]
cell death in TRPV1-expressing neurons [2]: induces cells death in TRPV1-expressing neurons

CC[C@H](C)[C@H](NC(=O)[C@@H]1CSSC[C@@H]2NC(=O)[C@H]([C@@H](C)O)NC(=O)[C@H](C(C)C)NC(=O)CNC(=O)[C@H](CC(N)=O)NC(=O)[C@@H](NC(=O)[C@@H]3CCCN3)CSSC[C@H](NC(=O)[C@H](CCCNC(=N)N)NC(=O)[C@H](Cc3ccc(O)cc3)NC(=O)CNC(=O)[C@H](CO)NC(=O)[C@@H]3CCCN3C2=O)C(=O)N[C@@H](CO)C(=O)N[C@@H]([C@@H](C)CC)C(=O)N[C@@H](C(C)C)C(=O)N[C@@H](CC(=O)O)C(=O)N[C@@H](CCCCN)C(=O)N[C@@H](CCC(N)=O)C(=O)N1)C(=O)N[C@@H](CCCCN)C(=O)N[C@@H](CCCCN)C(=O)N[C@@H](CCC(=O)O)C(=O)O [s-RhTx] (H-PCNGVTCPSGYRCSIVDKQCIKKE-OH; disulfide 2-13, 7-20)
EC50 (TRPV1 [3]): 1.58 ± 0.5 µM
EC50 (TRPV1 [4]): 0.89 ± 0.45 µM
enhancement of intracellular calcium, WT TRPV1 (TRPV1 [5]): 56.09 ± 8.62%
body temperature change [6]: did not cause any changes in the body temperature
increase of intracellular calcium fluorescence, E652D (TRPV1 E652D [7]): 47.5 ± 0.05%
EC50 (TRPV1 E652D [8]): 7.16 ± 1.42 µM
local inflammation of hind paw (mouse hind paw): no obvious local
body temperature change, systemic [9]: didn’t change body temperature
recruitment of immune cells (mouse hind paw skin): did not induce the recruitment
IENF degeneration, peptide alone [10]: did not induce
Trpv1+ neuron proportion and total neuron density in DRGs ([11]; co-injection with capsaicin, 1 and 4 weeks, words, listed as folded s-RhTx): did not change at 1 week; also recorded: not significantly changed
Trpv1+ neurons (% of all neurons) ([11]; 1 week, Mouse # 1): 33.4%
Trpv1+ neurons (% of all neurons) ([11]; 1 week, Mouse # 2): 33.4%
Trpv1+ neurons (% of all neurons) ([11]; 1 week, Mouse # 3): 35.2%
Trpv1+ neurons (% of all neurons) ([11]; 4 weeks, Mouse # 1): 37.1%
Trpv1+ neurons (% of all neurons) ([11]; 4 weeks, Mouse # 2): 32.1%
Trpv1+ neurons (% of all neurons) ([11]; 4 weeks, Mouse # 3): 33.0%
